Assays:
[1] = tested on: formalin-induced arthritis in rabbits; test: formalin-induced arthritis in rabbits (hematology and joint histology)
Procedure: Experiments were carried out on 51 rabbits “Chinchilla” having a weight of 2800-3200 g. […] An arthritis model was caused by administration of 0.1 ml of a 2% formalin solution into the cavity of the knee joint—and a model of acute arthritis was obtained after twenty-four hours.
The investigated agent and diclofenac were administered according to the following regimen: for preventive purposes 4 days prior to simulation of the arthritis on time per day intragastrically via a probe and on the 4th day 4 hours prior to the administration of formalin.
Animals were euthanized under hexobarbital anesthesia after 3, 7 and 14 days after the induction of arthritis. Prior to beginning of the experiment and prior to euthanasia, blood was taken from the ear vein, and was used to determine hematologic parameters.
For a pathomorphological study, the joints were extracted together with the surrounding tissues and fixed in 10% neutral formalin.

nondescript mice = conditions: both, mouse, in vivo
Procedure: Diclofenac was used for the comparison of the therapeutic activity of Boswellik. Studies were performed on both male and female nondescript mice after oral administration of the preparations.

peritonitis in rats = test: acute exudative inflammation (peritonitis) caused by intraperitoneal injection of acetic acid, rats; type: in vivo; conditions: 8 mg/kg
From the text: (§1) The evaluation of the anti-inflammatory activity for Boswellik has been carried out in a model of the acute inflammatory process—peritonitis—in rats and mice, caused by the intraperitoneal injection of acetic acid.

[2] = tested on: isolated human blood cells; test: in vitro synthesis of immunoglobulins by isolated human blood cells; type: cell-based
peritonitis in mice = test: acute exudative inflammation (peritonitis) caused by intraperitoneal injection of acetic acid, mice; type: in vivo; conditions: 8 mg/kg
From the text: as §1

[3] = diclofenac 8 mg/kg, present agent 250 mg/kg
[4] = diclofenac 8 mg/kg, present agent 250 mg/kg, all observation periods

O=C(O)Cc1ccccc1Nc1c(Cl)cccc1Cl [Diclofenac]
histological study of the joints, first observation ([1]; 3 days after the beginning (time printed for present agent only)): inflammatory and destructive changes were observed | histological study of the joints, 7 days ([1]; 7 days): articulate surfaces had uneven outlines | histological study of the joints, 14 days ([1]; 14 days): surface of articulate cartilages was smoothed down | time until inflammatory process calmed down / destructive changes in articulate cartilages were reduced ([1]; diclofenac 8 mg/kg (most of the animals), present agent 250 mg/kg): 14 days | average content of hemoglobin in the erythrocyte [1, 3]: decreased | number of monocytes [1, 3]: not changed | number of erythrocytes and hemoglobin in the peripheral blood ([1]; diclofenac 8 mg/kg, present agent 250 mg/kg, intragastric, vs initial level): substantially reduced | number of granulocytes [1, 4]: increased | number of leukocytes [1, 4]: insignificantly reduced | level of thrombocytes ([1]; diclofenac 8 mg/kg, present agent 250 mg/kg, entire period of the study): decrease | hematocrit ([1]; diclofenac 8 mg/kg, present agent 250 mg/kg, whole period of observation): reduced | safety index (ratio of ulcerogenicity/efficacy) (nondescript mice): 4.3-9.9 | influence on the volume of the inflammatory exudate in the abdominal cavity (peritonitis in rats; compared with Boswellik 100 and 130 mg/kg, rats and mice): considerably weaker influence | Degree of the anti-exudative effect A = [Ro − Rk]/Rk100% (peritonitis in rats; rats): 24% | Volume of the peritoneal exudate (peritonitis in rats; rats, n = 10): 3350 ± 220 µL | influence on the synthesis of immunoglobulins [2]: specific immunomodulating influence on the synthesis of immunoglobulins | Degree of the anti-exudative effect A = [Ro − Rk]/Rk100% (peritonitis in mice): 85% | Volume of the peritoneal exudate (peritonitis in mice; n = 10): 37 ± 2 µL
